# Measured values taken from PMC6175062, “Gaining Mechanistic Insight Into Coproporphyrin I as Endogenous Biomarker for OATP1B‐Mediated Drug–Drug Interactions Using Population Pharmacokinetic Modeling and Simulation” (Clinical Pharmacology and Therapeutics, 2018).
# pIC50, pKi: −log10 of the molar value. Where two headings read alike, the source gives them in different places.
# Assays:
# OATP1B3 = tested on: OATP1B3; set-up: method as in earlier work; details: ref (3, 4), cited from earlier work
# OATP1B1 [1] = details: cited from earlier work
# OATP1B1 [2] = test: Literature rifampicin in vitro Ki/IC50 in transfected OATP1B1 cells; type: cell-based
# Excerpt: In addition, literature reported in vitro RIF inhibition data in OATP1B1-transfected cell lines using either CPI or other OATP1B1 probes (Table S5) were collated to understand further any potential differences between in vitro and in vivo estimated RIF inhibition parameters.
# OATP [3] = test: Model-based rifampicin in vivo OATP Ki using rosuvastatin as probe; set-up: species or system human; details: total (not corrected for fu); RSV as probe; read-out: KiRSV, total Ki estimated by the model, population estimate (SE%)
# Excerpt: Based on the available plasma and urine data, a two compartment first order absorption and elimination model was used to describe the PK of RSV in the subjects. The model was parameterised using [picture] , volume of distribution of central ( [picture] ) and peripheral compartments ( [picture] ), inter-compartmental clearance ( [picture] ), biliary ( [picture] ) and renal ( [picture] ) clearance parameters. Analogous to CPI, inhibition of [picture] by RIF was incorporated in the rate of change of RSV plasma concentration, whereas it was assumed that RIF has no effect on RSV renal elimination (Eq 2). The rate of change of RSV amount in urine over time is shown in Eq3.
# where [picture] and [picture] are RSV concentrations in central (plasma) and peripheral compartments, [picture] is the amount in depot compartment, [picture] is RSV amount in the urine and [picture] is RIF transporter inhibition constant using RSV as a probe. Change in RSV distribution parameters ( [picture] , [picture] and [picture] ) following co-administration with RIF was also investigated as a binary covariate where two sets of parameters were estimated under the two experimental conditions; RSV alone and RSV under treatment (presence of RIF).
# OATP [4] = details: inhibitor 600 mg, rosuvastatin 5 mg; ref (20); cited from earlier work
# OATP1B = test: Rifampicin inhibition of CPI uptake in plated human hepatocytes; type: cell-based; details: human, plated cryopreserved human hepatocytes, probe CPI (coproporphyrin I) 0.30 µM, CPI 0.30 µM
# Experimental: (§1) The in vitro IC50 for rifampicin was assessed using CPI and RSV as OATP probe substrates in plated human hepatocytes. Cryopreserved human hepatocytes (Donor QQE, BioreclamationIVT, Baltimore, MD) were thawed and plated at a density of 350,000 cells (1). After culturing for 4h, hepatocytes were washed twice with Dulbecco's phosphate-buffered saline and pre-incubated for an hour with either buffer or rifampicin (0.01-100µM). Following pre-incubation, the medium was replaced with CPI (0.30µM) or RSV (2µM) containing rifampicin (0-100µM). Incubations were stopped after 3 or 5 minutes (for RSV and CPI,respectively) using the washing protocol described previously (2). Monolayers were lysed with water and frozen overnight and then prepared for protein quantification (BCA assay) and LC-MS/MS analysis.
# (§2) Lysate concentrations were used to demine uptake rates over a series of free RIF concentrations measured in the medium and plotted as a % of the control to estimate RIF IC50 (Main article Figure 5A and Figure S1). RIF IC50 was determined using equation 1, where U denotes the uptake rate (% vs control) at the free inhibitor concentration in the incubation [I] (µM); R, the range of inhibition; B, the un-inhibitable background (%), and S, the slope factor (GraFit v6).
# [5] = tested on: OATP1B-mediated CPI uptake in human hepatocytes; test: as above; type: cell-based
# Experimental: as §1, §2
# OATP2B1 = tested on: OATP2B1; set-up: method as in PMID 24617605, PMID 20102298; details: inconsistent data; read-out: IC50, OATP2B1 inhibition; cited from earlier work
# MRP2 = tested on: MRP2; set-up: method as in PMID 28325716; details: read-out: IC50, inhibition of MRP2 transport of CPI; cited from earlier work
smiles,measurement,setting,value
CO[C@H]1/C=C/O[C@@]2(C)Oc3c(C)c(O)c4c(O)c(c(/C=N/N5CCN(C)CC5)c(O)c4c3C2=O)NC(=O)/C(C)=C\C=C\[C@H](C)[C@H](O)[C@@H](C)[C@@H](O)[C@@H](C)[C@H](OC(C)=O)[C@@H]1C [rifampicin],pIC50,"OATP1B3; read-out: IC50, OATP1B3 transfected cells, CPI as substrate",5.79 to 6.60
same,pIC50,"OATP1B3; read-out: IC50, OATP1B3 transfected cells, CPIII as substrate",5.85 to 6.57
same,pIC50,"OATP1B1 [1]; substrate Atorvastatin 1 µM, HEK, rifampicin 0.1-630 µM, ref (11)",5.66
same,pIC50,"OATP1B1 [1]; substrate BSP 0.01 µM, HEK, rifampicin 0.01-100 µM, ref (7)",5.56
same,pIC50,"OATP1B1 [1]; substrate Coproporphyrin I 0.1 µM, CHO, rifampicin 0.1-100 µM, ref (3)",5.49
same,pIC50,"OATP1B1 [1]; substrate Coproporphyrin I 0.2 µM, HEK, rifampicin 0.1-100 µM, ref (4)",6.18
same,pIC50,"OATP1B1 [1]; substrate Coproporphyrin III 0.1 µM, CHO, rifampicin 0.1-100 µM, ref (3)",5.34
same,pIC50,"OATP1B1 [1]; substrate Coproporphyrin III 0.2 µM, HEK, rifampicin 0.1-100 µM, ref (4)",6.10
same,pIC50,"OATP1B1 [1]; substrate Fexofenadine 1 µM, HEK, rifampicin 0.01-100 µM, ref (10)",6.37
same,pIC50,"OATP1B1 [1]; substrate GCDCA-S 1 µM, HEK, rifampicin 0.1-30 µM, ref (5)",6.41
same,pIC50,"OATP1B1 [1]; substrate Nateglinide 1 µM, HEK, rifampicin 0.01-100 µM, ref (10)",6.45
same,pIC50,"OATP1B1 [1]; substrate Pitavastatin 0.1 µM, HEK, rifampicin 0.01-100 µM, ref (10)",5.97
same,pIC50,"OATP1B1 [1]; substrate Pitavastatin 0.1 µM, MDCKII, rifampicin 0.1-100 µM, ref (8)",5.80
same,pIC50,"OATP1B1 [1]; substrate Pravastatin 10 µM, HEK, rifampicin 0.01-100 µM, ref (10)",6.19
same,pIC50,"OATP1B1 [1]; substrate Rosuvastatin 0.1 µM, HEK, ref (9)",5.96
same,pIC50,"OATP1B1 [1]; substrate Rosuvastatin 0.1 µM, MDCKII, rifampicin 0.1-100 µM, ref (8)",5.96
same,pIC50,"OATP1B1 [1]; substrate Rosuvastatin 1 µM, HEK, rifampicin 0.01-100 µM, ref (10)",6.02
same,pIC50,"OATP1B1 [1]; substrate Valsartan 1 µM, HEK, rifampicin 0.01-100 µM, ref (10)",6.42
same,pIC50,"OATP1B1 [1]; substrate [3H]-E1S 0.01 µM, HEK, rifampicin 0.01-100 µM, ref (7)",5.16
same,pIC50,"OATP1B1 [1]; substrate [3H]-E2G 0.1 µM, HEK, rifampicin 0.01-100 µM, ref (7)",6.23
same,range in literature RIF IC50 (Table S5),OATP1B1 [2],30 fold
same,difference between in vivo Ki and literature in vitro data in OATP1B1-transfected cells,OATP1B1 [2]; depending on in vitro probe,up to 50 fold
same,pKi,OATP [3],5.65
same,Fold Change in AUC of rosuvastatin,OATP [4],4.7 fold
same,IC50 at 5 min,"OATP1B; 60 min pre-incubation with buffer, read-out: IC50, CPI uptake, pre-incubation with buffer",730 nM
same,IC50 at 5 min,"OATP1B; 60 min pre-incubation with inhibitor, donor QQE, read-out: IC50, CPI uptake, pre-incubation with RIF",300 nM
same,"IC50 with CPI in hepatocytes, fold lower than reported values in transfected OATP1B1 cells",[5],up to 10 fold
same,increase in potency of inhibition of CPI uptake by preincubation with RIF,[5],~2 fold
same,in vitro hepatocyte inhibition parameter (after preincubation) relative to in vivo Ki,[5]; in vitro higher than in vivo,4 fold
same,pIC50,OATP2B1,4.09 to 5.68
same,pIC50,MRP2,4.08
